Results published in the NIST ThermoML archive (doi:10.1016/j.fluid.2011.01.001).

Columns and labels:
[1] = mn = molality of the nth substance listed, in mol/kg; details: 101 kPa, Liquid, Vibrating tube method
[2] = 101.33 kPa, Liquid, Vibrating tube method
[3] = refractive index (Na D-line) (dimensionless); details: 101.33 kPa, Liquid, Standard Abbe refractometry

CCCCCCn1cc[n+](C)c1.CCOS(=O)(=O)[O-] [1-hexyl-3-methylimidazolium ethyl sulfate] + O
mass density [kg/m3], [1]
Details | 298.15 K | 308.15 K | 318.15 K | 328.15 K
m1 = 0.0113 | 997.55 | 994.52 | 990.63 | 985.41
m1 = 0.0347 | 998.58 | 995.5 | 991.48 | 986.2
m1 = 0.0419 | 998.9 | 995.8 | 991.73 | 986.44
m1 = 0.0614 | 999.73 | 996.6 | 992.41 | 987.07
m1 = 0.0677 | 1000 | 996.84 | 992.62 | 987.28
m1 = 0.1085 | 1001.65 | 998.38 | 994 | 988.57
m1 = 0.2177 | 1005.67 | 1002.07 | 997.31 | 991.8
m1 = 0.3501 | 1010 | 1005.78 | 1000.86 | 995.29
m1 = 0.433 | 1012.3 | 1007.9 | 1002.92 | 997.21
m1 = 0.5618 | 1015.56 | 1010.89 | 1005.91 | 1000.07
m1 = 0.7474 | 1019.59 | 1014.5 | 1009.79 | 1003.7
m1 = 0.8741 | 1021.74 | 1016.59 | 1012.03 | 1005.94
m1 = 1.17 | 1025.65 | 1020.79 | 1016.28 | 1010.91
m1 = 1.343 | 1027.8 | 1023.36 | 1018.31 | 1013.65

CCCCCCn1cc[n+](C)c1.COS(=O)(=O)[O-] [1-hexyl-3-methylimidazolium methyl sulfate]
Details | mass density, 298.15 K [kg/m3] | mass density, 308.15 K [kg/m3] | mass density, 318.15 K [kg/m3] | mass density, 328.15 K [kg/m3] | refractive index, 298.15 K | refractive index, 308.15 K | refractive index, 318.15 K | refractive index, 328.15 K
[2] | 1156.93 | 1150.32 | 1143.84 | 1137.38 | – | – | – | –
[3] | – | – | – | – | 1.4733 | 1.4708 | 1.4683 | 1.4654

CCCCCCn1cc[n+](C)c1.COS(=O)(=O)[O-] [1-hexyl-3-methylimidazolium methyl sulfate] + O
mass density [kg/m3], [1]
Details | 298.15 K | 308.15 K | 318.15 K | 328.15 K
m1 = 0.0118 | 997.55 | 994.47 | 990.58 | 985.32
m1 = 0.0314 | 998.37 | 995.17 | 991.17 | 985.78
m1 = 0.0497 | 999.1 | 995.8 | 991.69 | 986.21
m1 = 0.076 | 1000.09 | 996.65 | 992.4 | 986.8
m1 = 0.0937 | 1000.68 | 997.19 | 992.86 | 987.21
m1 = 0.154 | 1002.59 | 998.9 | 994.35 | 988.41
m1 = 0.3076 | 1006.3 | 1002.6 | 997.53 | 990.95
m1 = 0.5023 | 1010.81 | 1006.62 | 1001.55 | 994.25
m1 = 0.6255 | 1013.9 | 1009.13 | 1003.9 | 996.3
m1 = 0.7024 | 1015.42 | 1010.54 | 1005.28 | 997.49
m1 = 0.8838 | 1020.02 | 1014 | 1008.57 | 1000.18
m1 = 1.071 | 1024.02 | 1017.44 | 1012.23 | 1002.98
m1 = 1.284 | 1028.91 | 1021.24 | 1015.5 | 1005.89
m1 = 1.544 | 1034.22 | 1026.15 | 1020.01 | 1009
